Reference: patent US8614218B2, “Fused bicyclic pyrimidines” (Bayer Intellectual Property GmbH, priority 2007, dated 2013)

Tested on: A549 cells
Assay: Cellular proliferation/cytotoxicity assay (Alamar Blue), A549
Format: cell-based
Details: Homo sapiens, 72 h, Alamar Blue (Resazurin), read-out: Anti-proliterative/Cytotoxic activity (A549 cells)
Protocol: Cellular Proliferation/Cytotoxicity Assay:
The anti-proliferative activity of the compounds as described herein, is evaluated using the OvCAR3, HCT116 and A549 cell lines and the Alamar Blue (Resazurin) cell viability assay (O'Brien et al. Eur J Biochem 267, 5421-5426, 2000). Resazurin is reduced to the fluorescent resorufin by cellular dehydrogenase activity, correlating with viable, proliferating cells. Test compounds are dissolved as 10 mM solutions in DMSO and subsequently diluted. Cells like HCT116 or A549 cells were seeded into 96 well flat bottom plates at a density of 10000 cells/well (OvCAR3 cells), 1000 cells/well (HCT116 cells) or 2000 cells/well (A549 cells) in a volume of 200 μl/well. 24 hours after seeding, 1 μl each of the compound dilutions are added into each well of the 96 well plates. Each compound dilution is tested as at least as duplicates. Wells containing untreated control cells were filled with 200 μl DMEM (Dulbecco's Modified Eagle Medium) containing 0.5 vol % v:v DMSO. The cells are then incubated with the substances for 72 h at 37° C. in a humidified atmosphere containing 5 vol % CO2. To determine the viability of the cells, 20 μl of a Resazurin solution (90 mg/l) are added. After 4 h incubation at 37° C., the fluorescence is measured by extinction at λ=544 nm and an emission of λ=590 nm (Wallac Victor2; Perkin Elmer, USA). For the calculation of the cell viability, the emission value from untreated cells is set as 100% viability and the fluorescence intensity of treated cells are set in relation to the values of untreated cells. Viabilities are expressed as % values. The corresponding IC50 values of the compounds for cytotoxic activity are determined from the concentration-effect curves by means of non-linear regression. The analysis of the data is performed using a biostatistical program (GraphPad Prism, USA).
Representative IC50 values for anti-proliferative/cytotoxic potency determined in the aforementioned assay follow from the following table, in which the numbers of the compound correspond to the numbers of the examples.

SMILES | IC50
Cc1nc2nc(-c3ccc(CN4CCC(c5n[nH]c(-c6nccs6)n5)CC4)cc3)c(-c3ccccc3)cn2n1 [Example 43, 2-Methyl-6-phenyl-5-[4-({4-[5-(1,3-thiazol-2-yl)-1H-1,2,4-triazol-3-yl]piperidin-1-yl}methyl)phenyl][1,2,4]triazolo[1,5-a]pyrimidine] | < 10 µM
Cc1cc2nc(-c3ccc(CN4CCC(c5n[nH]c(-c6ccccn6)n5)CC4)cc3)c(-c3ccccc3)cn2n1 [Example 44, 2-Methyl-6-phenyl-5-(4-{[4-(5-pyridin-2-yl-1H-1,2,4-triazol-3-yl)piperidin-1-yl]methyl}phenyl)pyrazolo[1,5-a]pyrimidine] | > 10 µM
Cc1nc2nc(-c3ccc(CN4CCC(c5cc(-c6ccccn6)n[nH]5)CC4)cc3)c(-c3ccccc3)cn2n1 [Example 46, 2-Methyl-6-phenyl-5-(4-{[4-(3-pyridin-2-yl-1H-pyrazol-5-yl)piperidin-1-yl]methyl}phenyl)[1,2,4]triazolo[1,5-a]pyrimidine] | > 10 µM
Cc1nc2nc(-c3ccc(CN4CCC(c5n[nH]c(-c6ccncc6)n5)CC4)cc3)c(-c3ccccc3)cn2n1 [Example 47, 2-Methyl-6-phenyl-5-(4-{[4-(5-pyridin-4-yl-1H-1,2,4-triazol-3-yl)piperidin-1-yl]methyl}phenyl)[1,2,4]triazolo[1,5-a]pyrimidine] | < 10 µM
c1ccc(-c2cn3nc(C4CC4)cc3nc2-c2ccc(CN3CCC(c4n[nH]c(-c5ccccn5)n4)CC3)cc2)cc1 [Example 48, 2-Cyclopropyl-6-phenyl-5-(4-{[4-(5-pyridin-2-yl-1H-1,2,4-triazol-3-yl)piperidin-1-yl]methyl}phenyl)pyrazolo[1,5-a]pyrimidine] | < 10 µM
c1ccc(-c2nc(C3CCN(Cc4ccc(-c5nc6nccn6cc5-c5ccsc5)cc4)CC3)n[nH]2)nc1 [Example 51, 7-(4-{[4-(5-Pyridin-2-yl-1H-1,2,4-triazol-3-yl)piperidin-1-yl]methyl}phenyl)-6-(3-thienyl)imidazo[1,2-a]pyrimidine] | < 10 µM
Brc1nc2nc(-c3ccc(CN4CCC(c5n[nH]c(-c6ccccn6)n5)CC4)cc3)c(-c3ccccc3)cn2n1 [Example 52, 2-Bromo-6-phenyl-5-(4-{[4-(5-pyridin-2-yl-1H-1,2,4-triazol-3-yl)piperidin-1-yl]methyl}phenyl)[1,2,4]triazolo[1,5-a]pyrimidine] | < 10 µM
C#Cc1nc2nc(-c3ccc(CN4CCC(c5n[nH]c(-c6ccccn6)n5)CC4)cc3)c(-c3ccccc3)cn2n1 [Example 53, 2-Ethynyl-6-phenyl-5-(4-{[4-(5-pyridin-2-yl-1H-1,2,4-triazol-3-yl)piperidin-1-yl]methyl}phenyl)[1,2,4]triazolo[1,5-a]pyrimidine] | < 10 µM
Cc1nc2nc(-c3ccc(CN4CCC(c5n[nH]c(-c6ccccn6)n5)CC4)cc3)c(-c3ccsc3)cn2n1 [Example 54, 2-Methyl-5-(4-{[4-(5-pyridin-2-yl-1H-1,2,4-triazol-3-yl)piperidin-1-yl]methyl}phenyl)-6-(3-thienyl)[1,2,4]triazolo[1,5-a]pyrimidine] | < 10 µM
CN(C)c1nc2nc(-c3ccc(CN4CCC(c5n[nH]c(-c6ccccn6)n5)CC4)cc3)c(-c3ccccc3)cn2n1 [Example 62, N,N-Dimethyl-6-phenyl-5-(4-{[4-(5-pyridin-2-yl-1H-1,2,4-triazol-3-yl)piperidin-1-yl]methyl}phenyl)[1,2,4]triazolo[1,5-a]pyrimidin-2-amine] | < 10 µM
FC(F)(F)c1nc2nc(-c3ccc(CN4CCC(c5n[nH]c(-c6ccccn6)n5)CC4)cc3)c(-c3ccccc3)cn2n1 [Example 63, 6-Phenyl-5-(4-{[4-(5-pyridin-2-yl-1H-1,2,4-triazol-3-yl)piperidin-1-yl]methyl}phenyl)-2-(trifluoromethyl)[1,2,4]triazolo[1,5-a]pyrimidine] | > 10 µM
Cc1nc2nc(-c3ccc(CN4CCC(c5n[nH]c(-c6ccccn6)n5)CC4)cc3)c(-c3ccccc3)c(N(C)C)n2n1 [Example 64, N,N,2-Trimethyl-6-phenyl-5-(4-{[4-(5-pyridin-2-yl-1H-1,2,4-triazol-3-yl)piperidin-1-yl]methyl}phenyl)[1,2,4]triazolo[1,5-a]pyrimidin-7-amine] | < 10 µM
CNc1nc2nc(-c3ccc(CN4CCC(c5n[nH]c(-c6ccccn6)n5)CC4)cc3)c(-c3ccccc3)cn2n1 [Example 65, N-Methyl-6-phenyl-5-(4-{[4-(5-pyridin-2-yl-1H-1,2,4-triazol-3-yl)piperidin-1-yl]methyl}phenyl)[1,2,4]triazolo[1,5-a]pyrimidin-2-amine] | < 10 µM
COc1nc2nc(-c3ccc(CN4CCC(c5n[nH]c(-c6ccccn6)n5)CC4)cc3)c(-c3ccccc3)cn2n1 [Example 66, 2-Methoxy-6-phenyl-5-(4-{[4-(5-pyridin-2-yl-1H-1,2,4-triazol-3-yl)piperidin-1-yl]methyl}phenyl)[1,2,4]triazolo[1,5-a]pyrimidine] | < 10 µM
Nc1nc2nc(-c3ccc(CN4CCC(c5n[nH]c(-c6ccccn6)n5)CC4)cc3)c(-c3ccccc3)cn2n1 [Example 67, 6-Phenyl-5-(4-{[4-(5-pyridin-2-yl-1H-1,2,4-triazol-3-yl)piperidin-1-yl]methyl}phenyl)[1,2,4]triazolo[1,5-a]pyrimidin-2-amine] | < 10 µM
c1ccc(-c2cn3ccnc3nc2-c2ccc(CN3CCC(c4nc(-c5ccc[nH]5)n[nH]4)CC3)cc2)cc1 [Example 68, 6-Phenyl-7-[4-({4-[3-(1H-pyrrol-2-yl)-1H-1,2,4-triazol-5-yl]piperidin-1-yl}methyl)phenyl]imidazo[1,2-a]pyrimidine] | < 10 µM
c1ccc(-c2cn3nccc3nc2-c2ccc(CN3CCC(c4nc(-c5ncccn5)n[nH]4)CC3)cc2)cc1 [Example 69, 6-Phenyl-5-(4-{[4-(3-pyrimidin-2-yl-1H-1,2,4-triazol-5-yl)piperidin-1-yl]methyl}phenyl)pyrazolo[1,5-a]pyrimidine] | > 10 µM
c1ccc(-c2cn3nccc3nc2-c2ccc(CN3CCC(c4nc(-c5nccs5)n[nH]4)CC3)cc2)cc1 [Example 70, 6-Phenyl-5-[4-({4-[3-(1,3-thiazol-2-yl)-1H-1,2,4-triazol-5-yl]piperidin-1-yl}methyl)phenyl]pyrazolo[1,5-a]pyrimidine] | > 10 µM
c1ccc(-c2cn3nccc3nc2-c2ccc(CN3CCC(c4nc(-c5ccncc5)n[nH]4)CC3)cc2)cc1 [Example 71, 6-Phenyl-5-(4-{[4-(3-pyridin-4-yl-1H-1,2,4-triazol-5-yl)piperidin-1-yl]methyl}phenyl)pyrazolo[1,5-a]pyrimidine] | > 10 µM
c1ccc(-c2cn3nccc3nc2-c2ccc(CN3CCC(c4nc(-c5ccc[nH]5)n[nH]4)CC3)cc2)cc1 [Example 72, 6-Phenyl-5-[4-({4-[3-(1H-pyrrol-2-yl)-1H-1,2,4-triazol-5-yl]piperidin-1-yl}methyl)phenyl]pyrazolo[1,5-a]pyrimidine] | < 10 µM
Cc1nc2nc(-c3ccc(CN4CCC(c5nc(-c6ccc[nH]6)n[nH]5)CC4)cc3)c(-c3ccccc3)cn2n1 [Example 73, 2-Methyl-6-phenyl-5-[4-({4-[3-(1H-pyrrol-2-yl)-1H-1,2,4-triazol-5-yl]piperidin-1-yl}methyl)phenyl][1,2,4]triazolo[1,5-a]pyrimidine] | < 10 µM
Cc1cccc(-c2n[nH]c(C3CCN(Cc4ccc(-c5nc6nc(C)nn6cc5-c5ccccc5)cc4)CC3)n2)n1 [Example 74, 2-Methyl-5-[4-({4-[3-(6-methylpyridin-2-yl)-1H-1,2,4-triazol-5-yl]piperidin-1-yl}methyl)phenyl]-6-phenyl[1,2,4]triazolo[1,5-a]pyrimidine] | < 10 µM
Cc1cccc(-c2n[nH]c(C3CCN(Cc4ccc(-c5nc6ccnn6cc5-c5ccccc5)cc4)CC3)n2)n1 [Example 75, 5-[4-({4-[3-(6-Methylpyridin-2-yl)-1H-1,2,4-triazol-5-yl]piperidin-1-yl}methyl)phenyl]-6-phenylpyrazolo[1,5-a]pyrimidine] | < 10 µM
c1ccc(-c2cn3nccc3nc2-c2ccc(CN3CCC(c4cc(-c5ccccn5)n[nH]4)CC3)cc2)cc1 [Example 76, 6-Phenyl-5-(4-{[4-(3-pyridin-2-yl-1H-pyrazol-5-yl)piperidin-1-yl]methyl}phenyl)pyrazolo[1,5-a]pyrimidine] | > 10 µM
COC(=O)c1cc2nc(-c3ccc(CN4CCC(c5n[nH]c(-c6ccccn6)n5)CC4)cc3)c(-c3ccccc3)cn2n1 [Example 77, Methyl 6-phenyl-5-(4-{[4-(5-pyridin-2-yl-1H-1,2,4-triazol-3-yl)piperidin-1-yl]methyl}phenyl)pyrazolo[1,5-a]pyrimidine-2-carboxylate] | < 10 µM
NC(=O)c1cc2nc(-c3ccc(CN4CCC(c5n[nH]c(-c6ccccn6)n5)CC4)cc3)c(-c3ccccc3)cn2n1 [Example 78, 6-Phenyl-5-(4-{[4-(5-pyridin-2-yl-1H-1,2,4-triazol-3-yl)piperidin-1-yl]methyl}phenyl)pyrazolo[1,5-a]pyrimidine-2-carboxamide] | > 10 µM
